According to patent US20260262643A1, “HERBICIDAL BENZOXAZINES” (FMC CORPORATION, priority 2022, published 2026):

Experiments:
[1] = system: sedge, umbrella; assay: Test D flooded paddy test; assay type: in vivo, Cyperus difformis; details: 250 g ai/ha, applied to paddy water, visual rating after 13 to 14 days, scale 0 to 100 (0 no effect, 100 complete control)
In short: (§1)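 Rating scale 0–100 (0 no effect, 100 complete control), visual, versus controls. Readout at 13–14 days after in-water application to 2-leaf plants in pots flooded 3 cm deep.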

[2] = system: horseweed; assay: Test C postemergence; assay type: in vivo, Erigeron canadensis; details: 10 days, 0 to 100 scale (0 no effect, 100 complete control)
In short: (§2)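 Visual injury ratings on a 0–100 scale (100 = complete control) were made against untreated controls 10 days after treatment in the greenhouse. Compounds, formulated with surfactant in non-phytotoxic solvent, were sprayed on soil preemergence or onto one- to two-leaf plants 2–10 cm tall postemergence.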

[3] = system: ryegrass, Italian; assay: Test C preemergence; assay type: in vivo, Lolium multiflorum
In short: as §2

[4] = system: green foxtail; assay: Test C preemergence; assay type: in vivo, Setaria viridis
In short: as §2

[5] = system: ragweed; assay: Test C preemergence; assay type: in vivo, Ambrosia artemisiifolia
In short: as §2

[6] = system: soybean; assay: Test C preemergence; assay type: in vivo, Glycine max
In short: as §2

[7] = system: rice; assay: Test D flooded paddy test; assay type: in vivo, Oryza sativa; details: 250 g ai/ha, applied to paddy water, visual rating after 13 to 14 days, scale 0 to 100 (0 no effect, 100 complete control)
In short: as §1

[8] = system: galium; assay: Test C postemergence; assay type: in vivo, Galium aparine; details: 10 days, 0 to 100 scale (0 no effect, 100 complete control)
In short: as §2

[9] = system: oat, wild; assay: Test C postemergence; assay type: in vivo, Avena fatua; details: 10 days, 0 to 100 scale (0 no effect, 100 complete control)
In short: as §2

[10] = system: kochia; assay: Test C preemergence; assay type: in vivo, Bassia scoparia
In short: as §2

[11] = system: barnyardgrass; assay: Test C postemergence; assay type: in vivo, Echinochloa crusgalli; details: 10 days, 0 to 100 scale (0 no effect, 100 complete control)
In short: as §2

[12] = system: ryegrass, Italian; assay: Test C postemergence; assay type: in vivo, Lolium multiflorum; details: 10 days, 0 to 100 scale (0 no effect, 100 complete control)
In short: as §2

[13] = system: corn; assay: Test C postemergence; assay type: in vivo, Zea mays; details: 10 days, 0 to 100 scale (0 no effect, 100 complete control)
In short: as §2

[14] = system: soybean; assay: Test C postemergence; assay type: in vivo, Glycine max; details: 10 days, 0 to 100 scale (0 no effect, 100 complete control)
In short: as §2

[15] = system: blackgrass; assay: Test C preemergence; assay type: in vivo, Alopecurus myosuroides
In short: as §2

[16] = system: ragweed; assay: Test C postemergence; assay type: in vivo, Ambrosia artemisiifolia; details: 10 days, 0 to 100 scale (0 no effect, 100 complete control)
In short: as §2

[17] = system: barnyardgrass; assay: Test D flooded paddy test; assay type: in vivo, Echinochloa crus-galli; details: 250 g ai/ha, applied to paddy water, visual rating after 13 to 14 days, scale 0 to 100 (0 no effect, 100 complete control)
In short: as §1

[18] = system: oat, wild; assay: Test C preemergence; assay type: in vivo, Avena fatua
In short: as §2

[19] = system: wheat; assay: Test C preemergence; assay type: in vivo, Triticum aestivum
In short: as §2

[20] = system: pigweed, palmer; assay: Test C preemergence; assay type: in vivo, Amaranthus palmeri
In short: as §2

[21] = system: pigweed, palmer; assay: Test C postemergence; assay type: in vivo, Amaranthus palmeri; details: 10 days, 0 to 100 scale (0 no effect, 100 complete control)
In short: as §2

[22] = system: blackgrass; assay: Test C postemergence; assay type: in vivo, Alopecurus myosuroides; details: 10 days, 0 to 100 scale (0 no effect, 100 complete control)
In short: as §2

[23] = system: corn; assay: Test C preemergence; assay type: in vivo, Zea mays
In short: as §2

[24] = system: green foxtail; assay: Test C postemergence; assay type: in vivo, Setaria viridis; details: 10 days, 0 to 100 scale (0 no effect, 100 complete control)
In short: as §2

[25] = system: wheat; assay: Test C postemergence; assay type: in vivo, Triticum aestivum; details: 10 days, 0 to 100 scale (0 no effect, 100 complete control)
In short: as §2

[26] = system: barnyardgrass; assay: Test C preemergence; assay type: in vivo, Echinochloa crusgalli
In short: as §2

[27] = system: ducksalad; assay: Test D flooded paddy test; assay type: in vivo, Heteranthera limosa; details: 250 g ai/ha, applied to paddy water, visual rating after 13 to 14 days, scale 0 to 100 (0 no effect, 100 complete control)
In short: as §1

[28] = system: kochia; assay: Test C postemergence; assay type: in vivo, Bassia scoparia; details: 10 days, 0 to 100 scale (0 no effect, 100 complete control)
In short: as §2

[29] = 500 g ai/ha, preemergence, 0 to 100 scale (0 no effect, 100 complete control)
[30] = Preemergence, 125 g ai/ha, 0 to 100 scale, 0 no effect, 100 complete control

Compound: Cc1ncn(-c2ccc(F)c(C(=O)N3C[C@H](C)Oc4c(C)cccc43)c2)n1 [Compound 361]
- Plant response rating, Sedge, Umbrella (Flood) [1]: 95
- Plant response rating, Horseweed ([2]; 500 g ai/ha, postemergence): 10
- Plant response rating, Horseweed ([2]; Postemergence, 125 g ai/ha): 0
- Ryegrass, Italian plant response rating [3, 29]: 80
- Plant response rating, Ryegrass, Italian [3, 30]: 80
- Foxtail, Green plant response rating [4, 29]: 100
- Plant response rating, Foxtail, Green [4, 30]: 100
- Ragweed plant response rating [5, 29]: 70
- Plant response rating, Ragweed [5, 30]: 50
- Soybean plant response rating [6, 29]: 100
- Plant response rating, Soybean [6, 30]: 100
- Plant response rating, Rice (Flood) [7]: 15
- Plant response rating, Galium ([8]; 500 g ai/ha, postemergence): 100
- Plant response rating, Galium ([8]; Postemergence, 125 g ai/ha): 100
- Plant response rating, Oat, Wild ([9]; 500 g ai/ha, postemergence): 80
- Plant response rating, Oat, Wild ([9]; Postemergence, 125 g ai/ha): 30
- Kochia plant response rating [10, 29]: 90
- Plant response rating, Kochia [10, 30]: 80
- Plant response rating, Barnyardgrass ([11]; 500 g ai/ha, postemergence): 90
- Plant response rating, Barnyardgrass ([11]; Postemergence, 125 g ai/ha): 70
- Plant response rating, Ryegrass, Italian ([12]; 500 g ai/ha, postemergence): 90
- Plant response rating, Ryegrass, Italian ([12]; Postemergence, 125 g ai/ha): 80
- Plant response rating, Corn ([13]; 500 g ai/ha, postemergence): 50
- Plant response rating, Corn ([13]; Postemergence, 125 g ai/ha): 20
- Plant response rating, Soybean ([14]; 500 g ai/ha, postemergence): 100
- Plant response rating, Soybean ([14]; Postemergence, 125 g ai/ha): 100
- Blackgrass plant response rating [15, 29]: 60
- Plant response rating, Blackgrass [15, 30]: 40
- Plant response rating, Ragweed ([16]; 500 g ai/ha, postemergence): 60
- Plant response rating, Ragweed ([16]; Postemergence, 125 g ai/ha): 60
- Plant response rating, Barnyardgrass (Flood) [17]: 30
- Oat, Wild plant response rating [18, 29]: 50
- Plant response rating, Oat, Wild [18, 30]: 0
- Wheat plant response rating [19, 29]: 70
- Plant response rating, Wheat [19, 30]: 50
- Pigweed, Palmer plant response rating [20, 29]: 100
- Plant response rating, Pigweed, Palmer [20, 30]: 90
- Plant response rating, Pigweed, Palmer ([21]; 500 g ai/ha, postemergence): 60
- Plant response rating, Pigweed, Palmer ([21]; Postemergence, 125 g ai/ha): 20
- Plant response rating, Blackgrass ([22]; 500 g ai/ha, postemergence): 90
- Plant response rating, Blackgrass ([22]; Postemergence, 125 g ai/ha): 80
- Corn plant response rating [23, 29]: 10
- Plant response rating, Corn [23, 30]: 0
- Plant response rating, Foxtail, Green ([24]; 500 g ai/ha, postemergence): 90
- Plant response rating, Foxtail, Green ([24]; Postemergence, 125 g ai/ha): 90
- Plant response rating, Wheat ([25]; 500 g ai/ha, postemergence): 80
- Plant response rating, Wheat ([25]; Postemergence, 125 g ai/ha): 40
- Barnyardgrass plant response rating [26, 29]: 90
- Plant response rating, Barnyardgrass [26, 30]: 80
- Plant response rating, Ducksalad (Flood) [27]: 70
- Plant response rating, Kochia ([28]; 500 g ai/ha, postemergence): 80
- Plant response rating, Kochia ([28]; Postemergence, 125 g ai/ha): 70
